Laboratory results taken from patent US20060228776A1, “PINK-1 promoter” (NEUROLOGIX, INC., priority 2004, published 2006).

How the values were obtained:
[1] = system: human neuroblastoma SH-SY5Y; assay: Cell viability, CellTiter 96 Aqueous One Solution Cell Proliferation Assay; format: cell-based
Experimental: (§1) SH-SY5Y cells were maintained in Dulbecco's modified medium (DMEM) supplemented with 10% FBS, 100 IU/mL penicillin and […] streptomycin at 37 °C under 5% CO2. Toxins (Sigma) were freshly prepared and added to the cultures and incubated for various lengths of time.
To measure cell viability and apoptosis CellTiter 96 Aqueous One Solution Cell Proliferation Assay (Promega) and propidium iodide (Sigma) were used, respectively.

PTEN = assay: Western blot of p-PTEN/total PTEN ratio in toxin-treated SH-SY5Y cells; format: cell-based, human
Experimental: as §1
(§2) Blots were incubated with antibodies against PTEN, Phospho-PTEN, and Caspase-3 (Cell Signaling) followed by secondary antibodies and enhanced chemiluminescent detection (Amersham Biosciences).
PTEN and phosphorylated PTEN (p-PTEN) were determined by using western blot analysis. FIG. 6C show PTEN activity was determined by comparing the ratio of p-PTEN/total PTEN. A decrease in p-PTEN/total PTEN is correlated with higher PTEN activity. Results were analyzed by Image J software and p-PTEN/total PTEN results were shown graphically. […] Substantia nigra pars compacta were dissected and harvested for western blot analysis as previously described.

Caspase-3 = assay: Western blot of Caspase-3 active metabolite in SH-SY5Y cells; format: cell-based, human; settings: high (mM) doses of MPP+, 24 hrs
Experimental: as §1, §2

PINK1 promoter = PINK1 promoter analysis, Dual Glo Luciferase Assay in transfected HEK293 cells; format: cell-based, human; settings: promoter alone vs no promoter (pGL2-basic) or SV40 promoter (pGL2-control); HEK293, 48 hrs; p<0.05
Experimental: HEK293 cells were transfected with PINK1pr2220 and various controls for 48 hrs. Promoter activity was determined using Dual Glo Luciferase Assay system (Promega) and normalized against renilla luciferase.
In FIG. 3(A) the results are represented as the level of firefly luciferase activity driven by the PINK1 promoter normalized against renilla luciferase activity from a second plasmid used to control for transfection variability. Each experiment was replicated in triplicate, and the entire study was replicated on at least two separate occasions. […] Co-transfection with PTEN induced PINK1 promoter activity from 65% to 5 fold in various replicate experiments compared with PINK1 alone (**p<0.05; two-tailed t-test), while a PTEN point-mutant which lacks lipid phosphatase activity (1 mPTEN) had no effect.
Data is the result of triplicate experiments analyzed relative to promoter activity of PINK1pr2220 alone (*p<0.05; two-tailed t-test).
All plasmids were kept at constant amounts and ratios, with empty plasmid replacing constructs not used for individual studies. Data is the result of triplicate experiments analyzed relative to promoter activity of PINK1pr2220 alone (*p<0.05; two-tailed t-test).

How did the cell viability ([1]; 6-OHDA) turn out when `NCCc1cc(O)c(O)cc1O` [6-OHDA, 6-hydroxydopamine] was run?
The cell viability was “reduced cell viability”.

And the “p-PTEN/total PTEN ratio” value (PTEN; n=4)?
The value was “lower p-PTEN/total PTEN ratio”.

Which results are given for `C[n+]1ccc(-c2ccccc2)cc1` [MPP+]?
cell viability ([1]; MPP+ 24 hr treatment): reduced cell viability; p-PTEN/total PTEN ratio (PTEN; 24 hrs, escalating high doses of MPP+ (mM)): No change; p-PTEN/total PTEN ratio (PTEN; low dose MPP+ (100 μM), various time points): reduction; cleavage of Caspase-3 active metabolites (Caspase-3): not cleaved

“PINK1 promoter: 2220bp human DNA sequence upstream of the PINK1 transcriptional start site, driving firefly luciferase” was tested. Which “PINK1 promoter activity (firefly luciferase normalized against renilla luciferase)” value (PINK1 promoter) did it give?
Its value is “significant promoter activity”.
